In patent US20050004102A1, “Monohydroxycarbamazepine for use in the preparation of a medicament for the treatment of affective and attention disorder and neuropathic pain” (priority 2001, published 2005):

Experiments:
[1] = system: chronic pain in patients with diabetic neuropathy; assay: clinical trials in chronic pain in patients with diabetic neuropathy; format: in vivo; settings: Maintenance and Follow-up Periods
Source text: The activity of the compound of formula I in the treatment of neuropathic pain and related disorders can be confirmed in clinical trials evaluating the efficacy of a compound in treating chronic pain in patients with diabetic neuropathy.

[2] = system: neuropathic mechanical hyperalgesia; assay: model of neuropathic pain in the guinea pig (partial sciatic nerve ligation, mechanical hyperalgesia); format: in vivo, Dunkin Hartley guinea pigs; settings: paw withdrawal threshold, up to 6 hours
Source text: The direct activity of the compound of formula I in the treatment of neuropathic pain is evidenced, for example, in the following model of neuropathic pain in the guinea pig: Dunkin Hartley guinea pigs are anaesthetised with enflurane (in N2O:O2 for guinea pigs) and the left sciatic nerve is exposed and partially ligated with thread. This procedure produces a mechanical hyperalgesia, which develops within 2-3 days and is maintained for at least 4 weeks. Paw withdrawal thresholds to a pressure stimulus are measured using an analgesymeter. Mechanical thresholds are taken on both the ipsilateral (ligated) and contralateral (unligated) paw prior to and then up to 6 hours following drug or vehicule administration. Reversal of hyperalgesia at each time point is calculated. Groups of 6 animals are used. Statistical analysis is carried out on withdrawal threshold readings using ANOVA followed by Tukey's HSD test.

GABA turnover = GABA turnover determination after maximal inhibition of GABA-T; format: in vivo; settings: doses of 30 to about 300 mg/kg p.o.
Source text: The activity of the compound of formula I on GABA turnover is evidenced in the following experiment: The determination of GABA turnover Is based on the linear increase in GABA level observed after the maximal inhibition of gamma-aminobutyric acid transaminase (GABA-T). The values obtained with this approach for the rate of GABA synthesis are independent of the inhibitors used and within the catalytic capacity of the enzymes involved in the GABA shunt.

[3] = system: social withdrawal of intruder mice; assay: social withdrawal of intruder mice; format: in vivo; settings: dose range of 1 to about 100 mg/kg p.o.
Source text: The activity of the compound of formula I in the treatment of affective and attention disorders treatment is also evidenced, for example, in tests suitable for detecting drugs having potential behavioural desinhibitory and/or sociotropic effects which are thought to be relevant for recovery from social withdrawal, a cardinal feature of depression and related psychiatric conditions. For instance, drug effects on social withdrawal of intruder mice can be evaluated by using the basic method as described in Triangle, 1982, 21:95-105 and J. Clin. Psychiatry, 1994, 55:9 (suppl. B) 4-7.

With `NC(=O)N1c2ccccc2CC(O)c2ccccc21` (centres unmarked) [compound of formula I, 10-hydroxy-10,11-dihydro-carbamazepine] the “pain severity ratings relative to placebo” value [1] was “decrease pain severity ratings”, the “reversal of neuropathic mechanical hyperalgesia” value ([2]; 3 to about 100 mg/kg s.c.) was “significantly and dose-dependently reverses” and the “reversal of neuropathic mechanical hyperalgesia” value ([2]; 10 to about 100 mg/kg p.o.) was “significantly and dose-dependently reverses”. For the same molecule, the GABA turnover rate (GABA turnover) was “dose-dependently inhibits” and the “social investigation in the treated mouse” value [3] was “increases social investigation”.
